Data from patent US9434687B2, “Detection of synthetic cannabinoids” (priority 2011, dated 2016).

Tests used:
Type in all cases: binding, sheep
[1] = test system: IgG fraction of antiserum raised to Immunogen VIII; settings: Antibody to Immunogen VIII; cross-reactants at 100 ng/ml; 1000 ng/ml; standard JWH-018
[2] = test system: IgG fraction of antiserum raised to Immunogen IV; settings: Antibody to Immunogen IV; cross-reactants at 100 ng/ml; 1000 ng/ml; standard JWH-018
[3] = test system: IgG fraction of antiserum raised to Immunogen VII; settings: Antibody to Immunogen VII; cross-reactants at 100 ng/ml; 1000 ng/ml; standard JWH-015
[4] = test system: IgG fraction of antiserum raised to Immunogen I; settings: Antibody to Immunogen I; cross-reactants at 100 ng/ml; 1000 ng/ml; standard JWH-018
How it was run: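 Plates were coated with the IgG fraction of sheep antiserum raised to Immunogen I and incubated with standards (JWH-018, 0-40 ng/ml) plus hapten-HRP conjugate for 1 h at 25° C. Detection used TMB, read at 450 nm. IC50 was taken from a 4-parameter fit as the concentration giving half the zero-standard OD.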

[5] = test system: antibodies raised to Immunogens I & II; test: Competitive ELISA, selected molecules as potential cross-reactants (Table 3); settings: for % CR / IC50: Table 3, standard conc 750.00 ng/ml
Method: (a) The wells of an enhanced binding 96 well polystyrene microtiter plate were coated with the Ig fraction of the antiserum raised to Immunogen I (Hapten A-BTG—example 5) and diluted in 10 mM Tris, pH8.5 (125 μl/well). The appropriate antibody coating concentration was determined using standard ELISA checkerboard techniques. The plate was incubated for 2 hours at 37° C., washed 4 times over a 10-minute period with Tris buffered saline containing Tween 20 (TBST) and tapped dry. Standard solutions of JWH synthetic cannabinoids, metabolites and selected molecules were prepared in TBST and 50 μl of each was added to the appropriate wells. 75 μl of conjugate (Hapten A-HRP) diluted in Tris buffer containing EDTA, D-mannitol, sucrose, thimerosal and BSA, was added to each of the wells. The appropriate dilution of conjugate was also determined using standard ELISA checkerboard techniques. The plate was incubated at 25° C. for 1 hour. The excess unbound conjugate was removed by washing 6 times over a 10-minute period with TBST and tapped dry. 125 μl of tetramethylbenzedine (TMB) substrate solution was added to each well of the plate that was then incubated for 15-20 minutes in the dark at room temperature. The reaction was terminated by addition of 125 μl of 0.2M sulphuric acid to each well. The absorbance was then measured at 450 nm using a microtiter plate reader.
Employing each series of standards, calibration curves were generated and these were used to determine the specificity of the immunoassay for the JWH synthetic cannabinoids, metabolites and selected molecules. The results of this study are presented in Tables 1 to 3, cross-reactivity being calculated according to the following formula: % CR=IC50,JWH-018/IC50,CR×100
Where % CR is the percentage cross-reactivity, IC50, JWH-018 is the concentration of JWH-018 that causes 50% displacement of signal and IC50, CR is the concentration of JWH synthetic cannabinoid/metabolite/selected molecule that causes 50% displacement of signal.
The antibody produced from Immunogen I is able to bind to JWH molecules known to be incorporated in herbal therapeutics such as JWH-018, proposed metabolites such as M2 (Wintermeyer et al 2010), and potential metabolites such as M5. The detection and quantification of other JWH SSCs is also provided for, the antibodies of the invention bind a range of molecules comprising the 3-(1-naphthoyl)-1H-indole structure (e.g. JWH-071, JWH-398, M1 etc.). […] The concept of using the antibodies of the invention to detect and determine future stealth synthetic cannabinoids is highlighted in Table 4; the 5-fluoropentyl derivative known to bind the CB 1 receptor, but which as of yet has not been detected in herbal therapeutics or similar substances, binds to antibodies raised from Immunogens I and II.

OCCc1c[nH]c2ccc(O)cc12 [5-hydroxytryptophol]
% B/B0 [1]: 102.93%
% B/B0 [2]: 94.51%
% B/B0 [3]: 98.45%
% B/B0 [4]: 93.30%
% CR [5]: <0.28%
IC50 [5]: >0.75 µg/mL

CCCCCCC(C)(C)c1ccc([C@H]2CCC[C@@H](O)C2)c(O)c1 [CP-49,497-C7]
% B/B0 [1]: 86.95%
% B/B0 [2]: 96.84%
% B/B0 [3]: 94.23%
% B/B0 [4]: 101.20%
% CR [5]: <0.28%
IC50 [5]: >0.75 µg/mL

CCCCCc1cc(O)c2c(c1)OC(C)(C)c1ccc(C)cc1-2 [Cannabinol]
% B/B0 [1]: 94.03%
% B/B0 [2]: 94.74%
% B/B0 [3]: 95.43%
% B/B0 [4]: 86.60%
% CR [5]: <0.28%
IC50 [5]: >0.75 µg/mL

CCCCCc1cc(O)c2c(c1)OC(C)(C)[C@@H]1CCC(C)=C[C@@H]21 [Delta 9 THC]
% B/B0 [1]: 96.10%
% B/B0 [2]: 93.62%
% B/B0 [3]: 96.76%
% B/B0 [4]: 102.66%
% CR [5]: <0.28%
IC50 [5]: >0.75 µg/mL

O=C(O)c1c[nH]c2ccccc12 [Indole-3-carboxylic Acid]
% B/B0 [1]: 96.28%
% B/B0 [2]: 93.42%
% B/B0 [3]: 96.90%
% B/B0 [4]: 101.26%
binding / cross-reaction with antibodies raised from Immunogens I and II (in words) [5]: do not cross-react
% CR [5]: <0.28%
IC50 [5]: >0.75 µg/mL
